O=P(O)(O)c1ccccc1
solubility (mole fraction)
Settings | 288.15 K | 293.15 K | 298.15 K | 303.15 K | 308.15 K | 313.15 K | 318.15 K
in acetone | 0.136 | 0.155 | 0.174 | 0.197 | 0.22 | 0.245 | 0.277
in acetonitrile | 0.0136 | 0.0166 | 0.0194 | 0.0228 | 0.0275 | 0.0317 | 0.0365
in chloroform | 0.00104 | 0.00134 | 0.00164 | 0.00211 | 0.00257 | 0.0032 | 0.00393
in ethyl acetate | 0.00523 | 0.00634 | 0.00755 | 0.00896 | 0.0106 | 0.0127 | 0.0155
in n-propanol | 0.305 | 0.336 | 0.358 | 0.388 | 0.417 | 0.445 | 0.47

Reference: BigSolDB 2.1
